Assay results reported in PubChem BioAssay (NCI).
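Step 1: Grow cells in 96-well plates. Step 2: Expose to compound for 48 hours at 5 concentrations. Step 3: Interpolate endpoints linearly; if unreached, use highest concentration. GI50 marks 50% less growth. The concentration for full growth arrest is given as TGI.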

Assays:
Experiment in all cases: NCI anticancer screen, dose series, 48 h
SF-268 CNS = system: SF-268 CNS
MCF7 breast = system: MCF7 breast
CAKI-1 renal = system: CAKI-1 renal
PC-3 prostate = system: PC-3 prostate
OVCAR-8 ovarian = system: OVCAR-8 ovarian
A498 renal = system: A498 renal
CCRF-CEM leukemia = system: CCRF-CEM leukemia
SF-295 CNS = system: SF-295 CNS
SK-OV-3 ovarian = system: SK-OV-3 ovarian
UACC-257 melanoma = system: UACC-257 melanoma
MDA-MB-435 = system: MDA-MB-435
IGROV1 ovarian = system: IGROV1 ovarian
OVCAR-5 ovarian = system: OVCAR-5 ovarian
NCI/ADR-RES ovarian = system: NCI/ADR-RES ovarian
KM12 colon = system: KM12 colon
COLO 205 colon = system: COLO 205 colon
UACC-62 melanoma = system: UACC-62 melanoma
K-562 leukemia = system: K-562 leukemia
HL-60(TB) leukemia = system: HL-60(TB) leukemia
ACHN renal = system: ACHN renal
EKVX NSCLC = system: EKVX NSCLC
SK-MEL-5 melanoma = system: SK-MEL-5 melanoma
HCC-2998 colon = system: HCC-2998 colon
SK-MEL-2 melanoma = system: SK-MEL-2 melanoma
T-47D breast = system: T-47D breast
NCI-H522 lung = system: NCI-H522 lung
U251 CNS = system: U251 CNS
NCI-H460 lung = system: NCI-H460 lung
RPMI-8226 leukemia = system: RPMI-8226 leukemia
NCI-H23 lung = system: NCI-H23 lung
OVCAR-3 ovarian = system: OVCAR-3 ovarian
M14 melanoma = system: M14 melanoma
HCT-116 colon = system: HCT-116 colon
HOP-62 NSCLC = system: HOP-62 NSCLC
HOP-92 NSCLC = system: HOP-92 NSCLC
MDA-MB-231 breast = system: MDA-MB-231 breast
A549 NSCLC = system: A549 NSCLC
HCT-15 colon = system: HCT-15 colon
SK-MEL-28 melanoma = system: SK-MEL-28 melanoma
OVCAR-4 ovarian = system: OVCAR-4 ovarian
SNB-19 CNS = system: SNB-19 CNS
SNB-75 CNS = system: SNB-75 CNS
786-0 renal = system: 786-0 renal
DU-145 prostate = system: DU-145 prostate
SW-620 colon = system: SW-620 colon
HS 578T breast = system: HS 578T breast
BT-549 breast = system: BT-549 breast
UO-31 renal = system: UO-31 renal
HT29 colon = system: HT29 colon
NCI-H226 lung = system: NCI-H226 lung
SR leukemia = system: SR leukemia
MOLT-4 leukemia = system: MOLT-4 leukemia
TK-10 renal = system: TK-10 renal
RXF 393 renal = system: RXF 393 renal
SF-539 CNS = system: SF-539 CNS
SN12C renal = system: SN12C renal
LOX IMVI melanoma = system: LOX IMVI melanoma
MALME-3M melanoma = system: MALME-3M melanoma

For CC(C)(C)OC(=O)N(CCCCNC(=O)C(F)(F)F)CCCNC(=O)C(F)(F)F, the TGI (SF-268 CNS) was greater than 100 µM, the TGI (MCF7 breast) was greater than 100 µM and the TGI (CAKI-1 renal) was greater than 100 µM. For the same compound, the TGI (PC-3 prostate) was greater than 100 µM, the TGI (OVCAR-8 ovarian) was greater than 100 µM and the TGI (A498 renal) was greater than 100 µM. For the same compound, the TGI (CCRF-CEM leukemia) was greater than 100 µM, the TGI (SF-295 CNS) was greater than 100 µM and the TGI (SK-OV-3 ovarian) was greater than 100 µM. It also gave a TGI (UACC-257 melanoma) greater than 100 µM, a TGI (MDA-MB-435) greater than 100 µM and a TGI (IGROV1 ovarian) greater than 100 µM. It also gave a TGI (OVCAR-5 ovarian) greater than 100 µM, a TGI (NCI/ADR-RES ovarian) greater than 100 µM and a TGI (KM12 colon) greater than 100 µM. For the same compound, the TGI (COLO 205 colon) was greater than 100 µM, the TGI (UACC-62 melanoma) was greater than 100 µM and the TGI (K-562 leukemia) was greater than 100 µM. The TGI (HL-60(TB) leukemia) was greater than 100 µM, the TGI (ACHN renal) was greater than 100 µM and the TGI (EKVX NSCLC) was greater than 100 µM. The TGI (SK-MEL-5 melanoma) was greater than 100 µM, the TGI (HCC-2998 colon) was greater than 100 µM and the TGI (SK-MEL-2 melanoma) was greater than 100 µM. For the same compound, the TGI (T-47D breast) was greater than 100 µM, the TGI (NCI-H522 lung) was greater than 100 µM and the TGI (U251 CNS) was greater than 100 µM. For the same compound, the TGI (NCI-H460 lung) was greater than 100 µM, the TGI (RPMI-8226 leukemia) was greater than 100 µM and the TGI (NCI-H23 lung) was greater than 100 µM. The TGI (OVCAR-3 ovarian) was greater than 100 µM, the TGI (M14 melanoma) was greater than 100 µM and the TGI (HCT-116 colon) was greater than 100 µM. The TGI (HOP-62 NSCLC) was greater than 100 µM, the TGI (HOP-92 NSCLC) was greater than 100 µM and the TGI (MDA-MB-231 breast) was greater than 100 µM. For the same compound, the TGI (A549 NSCLC) was greater than 100 µM, the TGI (HCT-15 colon) was greater than 100 µM and the TGI (SK-MEL-28 melanoma) was greater than 100 µM. For the same compound, the TGI (OVCAR-4 ovarian) was greater than 100 µM, the TGI (SNB-19 CNS) was greater than 100 µM and the TGI (SNB-75 CNS) was greater than 100 µM. The TGI (786-0 renal) was greater than 100 µM, the TGI (DU-145 prostate) was greater than 100 µM and the TGI (SW-620 colon) was greater than 100 µM. The TGI (HS 578T breast) was greater than 100 µM, the TGI (BT-549 breast) was greater than 100 µM and the TGI (UO-31 renal) was greater than 100 µM. For the same compound, the TGI (HT29 colon) was greater than 100 µM, the TGI (NCI-H226 lung) was greater than 100 µM and the TGI (SR leukemia) was greater than 100 µM. The TGI (MOLT-4 leukemia) was greater than 100 µM, the TGI (TK-10 renal) was greater than 100 µM and the TGI (RXF 393 renal) was greater than 100 µM. It also gave a TGI (SF-539 CNS) greater than 100 µM and a TGI (SN12C renal) greater than 100 µM.
Compound COCCOC1=C(Cl)C(=O)c2ccccc2C1=O has a GI50 (SF-268 CNS) of 2.24 µM, a TGI (SF-268 CNS) of 9.32 µM and a GI50 (MCF7 breast) of 3.06 µM. It also gave a TGI (MCF7 breast) of 14.7 µM, a GI50 (CAKI-1 renal) of 2.83 µM and a TGI (CAKI-1 renal) of 9.83 µM. For the same compound, the GI50 (PC-3 prostate) was 2.18 µM, the TGI (PC-3 prostate) was 5.55 µM and the GI50 (OVCAR-8 ovarian) was 3.11 µM. The TGI (OVCAR-8 ovarian) was 10.7 µM, the GI50 (A498 renal) was 4.35 µM and the TGI (A498 renal) was 18.2 µM. For the same compound, the GI50 (SF-295 CNS) was 4.42 µM, the TGI (SF-295 CNS) was 15.9 µM and the GI50 (SK-OV-3 ovarian) was 4.55 µM. It also gave a TGI (SK-OV-3 ovarian) of 16.8 µM, a GI50 (UACC-257 melanoma) of 2 µM and a TGI (UACC-257 melanoma) of 4.36 µM. For the same compound, the GI50 (MDA-MB-435) was 3.08 µM, the TGI (MDA-MB-435) was 10.4 µM and the GI50 (IGROV1 ovarian) was 2.62 µM. The TGI (IGROV1 ovarian) was 6.44 µM, the GI50 (OVCAR-5 ovarian) was 3.22 µM and the TGI (OVCAR-5 ovarian) was 9.52 µM. For the same compound, the GI50 (NCI/ADR-RES ovarian) was 2.39 µM, the TGI (NCI/ADR-RES ovarian) was 6.7 µM and the GI50 (KM12 colon) was 2.11 µM. The TGI (KM12 colon) was 4.23 µM, the GI50 (COLO 205 colon) was 3.63 µM and the TGI (COLO 205 colon) was 12.2 µM. It also gave a GI50 (UACC-62 melanoma) of 1.89 µM, a TGI (UACC-62 melanoma) of 5.1 µM and a GI50 (HL-60(TB) leukemia) of 1.58 µM. The TGI (HL-60(TB) leukemia) was 4.87 µM, the GI50 (ACHN renal) was 1.88 µM and the TGI (ACHN renal) was 3.59 µM. The GI50 (EKVX NSCLC) was 3.51 µM, the TGI (EKVX NSCLC) was 15.8 µM and the GI50 (SK-MEL-5 melanoma) was 1.82 µM. The TGI (SK-MEL-5 melanoma) was 3.51 µM, the GI50 (HCC-2998 colon) was 4.23 µM and the TGI (HCC-2998 colon) was 15 µM. It also gave a GI50 (SK-MEL-2 melanoma) of 2.71 µM, a TGI (SK-MEL-2 melanoma) of 9.35 µM and a GI50 (NCI-H522 lung) of 1.47 µM. It also gave a TGI (NCI-H522 lung) of 2.9 µM, a GI50 (U251 CNS) of 3.14 µM and a TGI (U251 CNS) of 10 µM. The GI50 (NCI-H460 lung) was 3.34 µM, the TGI (NCI-H460 lung) was 17.3 µM and the GI50 (RPMI-8226 leukemia) was 2.31 µM. It also gave a TGI (RPMI-8226 leukemia) of 6.75 µM, a GI50 (NCI-H23 lung) of 3.24 µM and a TGI (NCI-H23 lung) of 13.5 µM. For the same compound, the GI50 (OVCAR-3 ovarian) was 1.66 µM, the TGI (OVCAR-3 ovarian) was 3.06 µM and the GI50 (HCT-116 colon) was 1.82 µM. For the same compound, the TGI (HCT-116 colon) was 3.58 µM, the GI50 (HOP-62 NSCLC) was 3.92 µM and the TGI (HOP-62 NSCLC) was 14.8 µM. For the same compound, the GI50 (LOX IMVI melanoma) was 1.75 µM, the TGI (LOX IMVI melanoma) was 3.31 µM and the GI50 (HOP-92 NSCLC) was 1.41 µM. The TGI (HOP-92 NSCLC) was 2.93 µM, the GI50 (MDA-MB-231 breast) was 2.81 µM and the TGI (MDA-MB-231 breast) was 11.7 µM. For the same compound, the GI50 (A549 NSCLC) was 4.33 µM, the TGI (A549 NSCLC) was 21.8 µM and the GI50 (HCT-15 colon) was 2.88 µM. For the same compound, the TGI (HCT-15 colon) was 9.65 µM, the GI50 (SK-MEL-28 melanoma) was 3.22 µM and the TGI (SK-MEL-28 melanoma) was 10.9 µM. It also gave a GI50 (OVCAR-4 ovarian) of 2.17 µM, a TGI (OVCAR-4 ovarian) of 4.68 µM and a GI50 (SNB-19 CNS) of 4.55 µM. It also gave a TGI (SNB-19 CNS) of 16.8 µM, a GI50 (SNB-75 CNS) of 2.75 µM and a TGI (SNB-75 CNS) of 10.1 µM. The GI50 (786-0 renal) was 6.26 µM, the TGI (786-0 renal) was 18.8 µM and the GI50 (DU-145 prostate) was 3.1 µM. For the same compound, the TGI (DU-145 prostate) was 10.7 µM, the GI50 (SW-620 colon) was 1.7 µM and the TGI (SW-620 colon) was 3.32 µM. It also gave a GI50 (HS 578T breast) of 2.94 µM, a TGI (HS 578T breast) of 12.7 µM and a GI50 (MALME-3M melanoma) of 3.08 µM. It also gave a TGI (MALME-3M melanoma) of 13.4 µM, a GI50 (BT-549 breast) of 3.2 µM and a TGI (BT-549 breast) of 10.6 µM. The GI50 (UO-31 renal) was 3.07 µM, the TGI (UO-31 renal) was 16 µM and the GI50 (HT29 colon) was 7.06 µM. The TGI (HT29 colon) was 25.5 µM, the GI50 (NCI-H226 lung) was 4.18 µM and the TGI (NCI-H226 lung) was 15.8 µM. For the same compound, the GI50 (SR leukemia) was 3.17 µM, the TGI (SR leukemia) was 9.48 µM and the GI50 (MOLT-4 leukemia) was 1.81 µM. The TGI (MOLT-4 leukemia) was 42 µM, the GI50 (TK-10 renal) was 2.83 µM and the TGI (TK-10 renal) was 10.8 µM. For the same compound, the GI50 (RXF 393 renal) was 3.31 µM, the TGI (RXF 393 renal) was 10.2 µM and the GI50 (SF-539 CNS) was 2.52 µM. It also gave a TGI (SF-539 CNS) of 5.79 µM, a GI50 (SN12C renal) of 3.91 µM and a TGI (SN12C renal) of 16.5 µM.
